Experimental data taken from patent publication US20070275086A1, “Use of Increased Molecular-Weight Hirudin as an Anticoagulant in Extracorporeal Kidney Replace Therapy” (Max-Planck-Gesellschaft Zur Forderung Der Wissenschaften E.V, priority 1999, published 2007).
Several values for one entry are separate records, joined by “and”; a condition that tells them apart may be missing. Equal values may be shown once.

Key:
blood platelets = conditions: human, in vivo
From the text: Patient one. […] Patient was anticoagulated with 6900 IU heparin.
The objective and subjective findings which point towards an HIT II condition were no longer evident after the changeover to anticoagulation with PEG-hirudin. The blood platelet counts, which had constantly shown values above 400/nl during the last dialyses under heparin, fell during the PEG-hirudin haemodialysis to the range from 320 to 350/nl; a trend towards continued normalisation was clearly demonstrable.
The patient was then transferred to PEG-hirudin.

HIT II-positive patients = conditions: human, in vivo
Method: Patient was anticoagulated with 6900 IU heparin. […] The patient complained during dialysis and also in the dialysis-free intervals of problems relating to blood pressure and in some cases mild states of confusion. […] The average number of blood platelets before and after haemodialysis was between 350 and 400/nl.
The patient was transferred to PEG-hirudin according to the following dosage scheme: first haemodialysis: 0.1 mg/kg as a bolus, second to 10th haemodialysis: 0.05 mg/kg PEG hirudin, 11th haemodialysis and beyond: 0.025 mg/kg. […] The blood level of PEG hirudin fluctuated between 0.4 μg/ml before the start of haemodialysis and 1.0 μg/ml after dialysis. The filling volumes with the Type GFS plus 11 dialysers (GAMBRO) were as follows: under heparin application—the mean value for the last three heparin-anticoagulated dialyses was 87 ml; the filling volume during PEG-hirudin treatment for HD 5-HD 6 was 96 ml.
Creatinine clearance was less than 12 ml/min. The anticoagulant used during haemodialysis was un-fractionated heparin. Additionally, the dialysers (H120, Braun-Melsungen) were “primed” before the start of haemodialysis with 500 units of heparin. The patient received 3000 units of heparin as a bolus and 3000 units of heparin as an infusion during the 3.5 hour haemodialysis. […]

[1] = Dialyser filling volume and clotting in the extracorporeal circuit at end of haemodialysis; format: in vivo, human
From the text: Following this, the patient was transferred to PEG-hirudin.

Method for HIT II antibodies: Patient. […] Patient was anticoagulated with 6900 IU heparin. […] The patient complained during dialysis and also in the dialysis-free intervals of problems relating to blood pressure and in some cases mild states of confusion. […] The average number of blood platelets before and after haemodialysis was between 350 and 400/nl.
Creatinine clearance was less than 12 ml/min. The anticoagulant used during haemodialysis was un-fractionated heparin. Additionally, the dialysers (H120, Braun-Melsungen) were “primed” before the start of haemodialysis with 500 units of heparin. The patient received 3000 units of heparin as a bolus and 3000 units of heparin as an infusion during the 3.5 hour haemodialysis. […] The patient complained of tingling in the extremities, a feeling of restlessness and intermittent state of confusion. Between the dialysis sessions, the patient complained of headaches, malaise and loss of appetite. They stated that the people around them complained that they were irritable and seemed under stress.
This patient had been dialysed for 5 months initially with un-fractionated heparin, then with fractionated heparin (Enoxaparin). Enoxaparin was applied in a dose of 20 mg directly before the start of the dialysis. After an incorrect dialysis (rise in pressure before the dialyser) over the dialysis period of 4.5 h, an additional 10 mg Enoxaparin were applied via an indwelling infusion pump placed before the dialyser (F 50 S, Fresenius). The patient indicated severe shortness of breath, a decline in circulation and blood pressure to base values of 80/30 mmHg shortly after the start of haemodialysis.

blood platelets during haemodialysis, reduced down to (blood platelets) | tests for HIT II antibodies (HIPA test and platelet-factor-4 ELISA) (HIT II antibodies) | average number of blood platelets before and after haemodialysis (blood platelets) | blood platelet counts (blood platelets) | HIT II-specific diagnosis (HIPA-test) (HIT II antibodies) | tests for HIT-positive antibodies (HIPA and ELISA) (HIT II antibodies) | Substance | blood pressure base values shortly after the start of haemodialysis (HIT II-positive patients) | filling volume of dialyser ([1]; patient one, Type GFS plus 11 dialysers (GAMBRO), specified 100 ml, heparin: mean of last three dialyses, PEG-hirudin: HD 5-HD 6) | filling volume at the end of haemodialysis ([1]; patient two, H120 dialysers, heparin: last two haemodialyses, PEG-hirudin: after the 4th haemodialysis) | fall in blood pressure at the start of haemodialysis (HIT II-positive patients)
100 nL⁻¹ | positive |  |  |  |  | Enoxaparin | 80/30 |  |  | 
 |  | 350 to 400 nL⁻¹ | above 400 /nl | positive result | strongly positive | heparin |  | 87 mL | 71 mL and 73 mL | 35 mmHg
